From patent US20130267484A1, “TREATMENT OF RHEUMATOID ARTHRITIS WITH MASITINIB” (AB SCIENCE, priority 2010, published 2013)
Where two headings read alike, the source gives them in different places.

How the values were obtained:
[1] = test system: DMARD-refractory active RA; assay: Study of masitinib in combination with MTX in DMARD-refractory active RA; assay type: in vivo, Human
Protocol: A smaller second study was also conducted to evaluate the safety and efficacy of masitinib in combination with MTX in the treatment of DMARD-refractory active RA. […] (1) MTX; (2) any DMARD including anti-TNFα if patients previously failed MTX; or (3) MTX in combination with any DMARD including anti-TNFα.

[2] = week 12, total ITT population (n=8)
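Throughout, for ALAT in the patient with hepatic disorder: Open-label phase 2a trial, oral dosing twice daily, incidence of drug-related AEs (>4%) by intensity per Common Toxicity Criteria v3.0, initial 12-week and extension phases.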
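Throughout, for ASAT in the patient with hepatic disorder: Open-label phase 2a trial, oral dosing twice daily, incidence of drug-related AEs (>4%) by intensity per Common Toxicity Criteria v3.0, initial 12-week and extension phases.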
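Throughout, for Treatment time to occurrence of severe transaminases increase AE: Open-label phase 2a trial, oral dosing twice daily, incidence of drug-related AEs (>4%) by intensity per Common Toxicity Criteria v3.0, initial 12-week and extension phases.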
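Throughout, for alkaline phosphatase in the patient with hepatic disorder: Open-label phase 2a trial, oral dosing twice daily, incidence of drug-related AEs (>4%) by intensity per Common Toxicity Criteria v3.0, initial 12-week and extension phases.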

Protocol for adults with active RA: Safety was assessed by occurrence of adverse events (AE), SAEs, and monitoring biochemical, haematological and urinalysis parameters during the study period, with toxicity graded according to the Common Toxicity Criteria version 3.0.

Cc1ccc(NC(=O)c2ccc(CN3CCN(C)CC3)cc2)cc1Nc1nc(-c2cccnc2)cs1 [masitinib, 4-(4-methylpiperazin-1-ylmethyl)-N-[4-methyl-3-(4-pyridin-3ylthiazol-2-ylamino)phenyl]benzamide]
Patients achieving ACR70 at week 4 maintained up to week 12 ([1]; 6 mg/kg/day, had failed anti-TNFα): One | Patients achieving ACR20 at week 8 through 12 ([1]; 3 of 8 patients evaluable): One | Patients reaching ACR20 at week 12 ([1]; 3 of 8 patients evaluable): One | Patients with CRP score improvement of between 25 and 50% ([1]; week 12): two | Patients with CRP improvement greater than 50% ([1]; week 12, 6 mg/kg/day): one | Asthenia assessment change (mean) [1, 2]: −19.6% | HAQ assessment improvement [1, 2]: 29.5% | Hamilton Score improvement [1, 2]: 75.7% | Improvement of general patient health [1, 2]: +92.2% | Mean FIS Physical and Social score [1, 2]: slightly decreased | Pain assessment change (mean) [1, 2]: −72.2% | ALAT in the patient with hepatic disorder (adults with active RA; 6 mg/kg/day, one patient): 188 | ASAT in the patient with hepatic disorder (adults with active RA; 6 mg/kg/day, one patient): 122 | Treatment time to occurrence of severe transaminases increase AE (adults with active RA; 6 mg/kg/day, one patient): 14 days | alkaline phosphatase in the patient with hepatic disorder (adults with active RA; 6 mg/kg/day, one patient): 635 | Suspected AE: Aphthous Stomatitis (adults with active RA; Extension phase, All (n = 21)): 1 (4.8%) | Suspected AE: Asthenia (adults with active RA; Extension phase, All (n = 21)): 1 (4.8%) | Suspected AE: Bronchopneumopathy (adults with active RA; Extension phase, All (n = 21)): 1 (4.8%) | Suspected AE: Eczema (adults with active RA; Extension phase, All (n = 21)): 1 (4.8%) | Suspected AE: Edema - All (adults with active RA; Extension phase, All (n = 21)): 2 (9.5%) | Suspected AE: Gastroenteritis (adults with active RA; Extension phase, All (n = 21)): 1 (4.8%) | Suspected AE: Leukopenia (adults with active RA; Extension phase, All (n = 21)): 1 (4.8%) | Suspected AE: Liver Disorder (adults with active RA; Extension phase, All (n = 21)): 1 (4.8%) | Suspected AE: Nasopharyngitis (adults with active RA; Extension phase, All (n = 21)): 1 (4.8%) | Suspected AE: Neutrophil Count Decreased (adults with active RA; Extension phase, All (n = 21)): 1 (4.8%) | Suspected AE: Onychoclasis (adults with active RA; Extension phase, All (n = 21)): 1 (4.8%) | Suspected AE: Photosensitivity Reaction (adults with active RA; Extension phase, All (n = 21)): 1 (4.8%) | Suspected AE: Pleural Effusion (adults with active RA; Extension phase, All (n = 21)): 1 (4.8%) | Suspected AE: Pyrexia (adults with active RA; Extension phase, All (n = 21)): 1 (4.8%) | Suspected AE: Rheumatoid Arthritis (adults with active RA; Extension phase, All (n = 21)): 1 (4.8%) | Suspected AE: Rhinitis (adults with active RA; Extension phase, All (n = 21)): 1 (4.8%) | Suspected AE: Vertigo (adults with active RA; Extension phase, All (n = 21)): 1 (4.8%) | Subjects with At least one suspected AE (adults with active RA; Extension phase, Mild): 4 (19.0%) | Suspected AE: Aphthous Stomatitis (adults with active RA; Extension phase, Mild): 1 (4.8%) | Suspected AE: Asthenia (adults with active RA; Extension phase, Mild): 1 (4.8%) | Suspected AE: Eczema (adults with active RA; Extension phase, Mild): 1 (4.8%) | Suspected AE: Gastroenteritis (adults with active RA; Extension phase, Mild): 1 (4.8%) | Suspected AE: Nasopharyngitis (adults with active RA; Extension phase, Mild): 1 (4.8%) | Suspected AE: Neutrophil Count Decreased (adults with active RA; Extension phase, Mild): 1 (4.8%) | Suspected AE: Onychoclasis (adults with active RA; Extension phase, Mild): 1 (4.8%) | Suspected AE: Photosensitivity Reaction (adults with active RA; Extension phase, Mild): 1 (4.8%) | Suspected AE: Pyrexia (adults with active RA; Extension phase, Mild): 1 (4.8%) | Suspected AE: Rhinitis (adults with active RA; Extension phase, Mild): 1 (4.8%) | Subjects with At least one suspected AE (adults with active RA; Extension phase, Moderate): 3 (14.3%) | Suspected AE: Edema - All (adults with active RA; Extension phase, Moderate): 2 (9.5%) | Suspected AE: Leukopenia (adults with active RA; Extension phase, Moderate): 1 (4.8%) | Suspected AE: Vertigo (adults with active RA; Extension phase, Moderate): 1 (4.8%) | Suspected AE: Bronchopneumopathy (adults with active RA; Extension phase, Severe): 1 (4.8%) | Suspected AE: Liver Disorder (adults with active RA; Extension phase, Severe): 1 (4.8%) | Suspected AE: Pleural Effusion (adults with active RA; Extension phase, Severe): 1 (4.8%) | Suspected AE: Rheumatoid Arthritis (adults with active RA; Extension phase, Severe): 1 (4.8%) | Suspected AE: Abdominal Pain (adults with active RA; Initial Phase, All (n = 43)): 2 (4.7%) | Suspected AE: Abdominal Pain Upper (adults with active RA; Initial Phase, All (n = 43)): 5 (11.6%) | Suspected AE: Alopecia (adults with active RA; Initial Phase, All (n = 43)): 2 (4.7%) | Suspected AE: Asthenia (adults with active RA; Initial Phase, All (n = 43)): 5 (11.6%) | Suspected AE: Blood Creatinine Increased (adults with active RA; Initial Phase, All (n = 43)): 2 (4.7%) | Suspected AE: Cough (adults with active RA; Initial Phase, All (n = 43)): 2 (4.7%) | Suspected AE: Diarrhea (adults with active RA; Initial Phase, All (n = 43)): 8 (18.6%) | Suspected AE: Dry Mouth (adults with active RA; Initial Phase, All (n = 43)): 2 (4.7%) | Suspected AE: Dyspnoea (adults with active RA; Initial Phase, All (n = 43)): 3 (7.0%) | Suspected AE: Edema - All (adults with active RA; Initial Phase, All (n = 43)): 11 (25.6%) | Suspected AE: Gastroenteritis (adults with active RA; Initial Phase, All (n = 43)): 2 (4.7%) | Suspected AE: Headache (adults with active RA; Initial Phase, All (n = 43)): 6 (14.0%) | Suspected AE: Herpes Simplex (adults with active RA; Initial Phase, All (n = 43)): 3 (7.0%) | Suspected AE: Hyperthermia (adults with active RA; Initial Phase, All (n = 43)): 2 (4.7%) | Suspected AE: Nausea (adults with active RA; Initial Phase, All (n = 43)): 10 (23.3%) | Suspected AE: Petechiae (adults with active RA; Initial Phase, All (n = 43)): 2 (4.7%)
